Consider 5 molecules from patent US20110045568A1, “METHOD FOR RESTORING BMP-RECEPTOR SIGNALING IN A CELL” (FREIE UNIVERSITÄT BERLIN, priority 2008, published 2011).

Data set [1] relates to Id1 promoter. Put plainly: Chromatin immunoprecipitation (ChIP) at the Id1 promoter in C2C12 cells. It counts as cell-based, mouse. To be noted: co-stimulation with or stimulation with 8-Br-cGMP alone, 1 μmol/l, 4 hrs.
Experimental: Chromatin immunoprecipitation (ChIP) was performed using (A) α-cGKI or α-Smad1 antibody or (B) α-Smad1 followed by α-cGKI antibody and vice versa or (C) α-Smad1 followed by α-TFII-I antibody and vice versa. Subsequent PCR identified a co-precipitated Id1 promoter sequence using specific primers. […] To exclude unspecific outcome control samples were run (for ChIP: no antibody, IgG, α-GFP antibody; for two-step ChIP: α-respective antibody followed by IgG; for unspecific amplification via PCR: no template). […] C2C12 cells were stimulated with BMP-2 for 4 h or left unstimulated. Endogenous chromatin immunoprecipitations (ChIP) of a specific Id1 promoter fragment was performed using α-Smad1 and α-cGKI antibodies (left). Id1 promoter was assayed for cGKI/TFII-I complex formation by one-step and two-step ChIP with the indicated antibodies. (D) Endogenous complexes with cGKI from C2C12 cells were analyzed with α-TFII-I, α-Smad1 and α-Smad4 antibodies and a lysate aliquot was monitored for protein expression. (E) Smad1/TFII-I association was analyzed in 293T cells expressing both proteins. IP was performed using a Smad1 directed antibody and the pellets were examined for co-IP of TFII-I. Lysate control was done by immunoblotting α-Smad1 and α-TFII-I.
Briefly, C2C12 cells were grown to a confluence of 80-90% (10 cm dish). […] PCR products were separated on 8% PA gels and analyzed under UV light.
The test system of data set [2] is BMP response element (BRE from Id1 promoter) luciferase reporter. Put plainly: BRE luciferase reporter gene assay in C2C12 cells. It counts as cell-based, mouse. The protocol: Luciferase activity was measured and error bars result from the mean of duplicate measurements. […] Expression of cGKIα/β was controlled by immunoblot using α-cGKI antibody. (C) As in (A and B) except that reporters were co-transfected with sh-cGKI, sh-cGKI mix and sh-control into C2C12 cells. BRE driven luciferase activity was measured and error bars represent deviation of the mean of duplicate measurements. […] Following cell extraction RNA was reverse transcribed into cDNA. The mRNA amount of Id1 was analyzed using Id1 specific primers including the control of applied cDNA by PCR using β-actin specific primers. The result is derived from a representative experiment. (F) As in (A and B), except that reporters were co-transfected with cGKIα and MYC-TFII-I into C2C12 cells. […] Lysates were pooled and immunoblotted for expression of cGKIα and TFII-I. (G) As in (E) except that mRNA amount of cGKI was analyzed using cGKI specific primers. The result is derived from an exemplary experiment. Results were quantified using ImageJ. cGKI mRNA expression was normalized relative to β-actin. […] Fold changes in BRE reporter activities were normalized to the non-treated empty vector control (mean±SD). […] The PDGF- or serum-induced proliferation was measured.
C2C12 cells were transfected with pBRE4-luc and pRL-TK and indicated constructs. […] Luciferase activity was measured according to manufacturer's instructions using the Dual-Luciferase® Reporter Assay System (Promega) and a FB12 or Mithras LB 940 luminometer (Berthold). Expression control was examined by immunoblotting.
For orientation: Reporter assays use an easily measured gene product as a stand-in for the process of interest.

Data set [3] relates to VASP. Put plainly: Endogenous VASP phosphorylation in C2C12 cells (immunoblot). It counts as cell-based, mouse. To be noted: 1 μmol/l 8-Br-cGMP. The protocol: Endogenous VASP phosphorylation in C2C12 cells was monitored in response to 1 μmol/l and 100 μmol/l 8-Br-cGMP stimulation. Lysates were analyzed using immunoblot α-pVASP and α-β-actin.
The test system of data set [4] is cGKI. Put plainly: Immunofluorescence microscopy of cGKI localization in C2C12 cells. It is filed as cell-based, mouse. The following applies: stimulation for 30 min.
Experimental: (C) Immunofluorescence staining of cGKI in C2C12 cells after stimulation with BMP-2 or 8-Br-cGMP. DNA was stained using Hoechst dye.
Analysis was done with 63-fold magnification at a Leica DMR (Leica) confocal microscope. To examine the protein localization C2C12 cells or transfected 293T cells were starved for 3 hrs and either stimulated with 10 or 20 nmol/l BMP-2 and/or 1 mmol/18-Br-cGMP for 30 min or for 5 to 60 min or left untreated. Indirect immunofluorescence was performed as described in (Bengtsson and Wilson, 2006). Cells were analyzed using fluorescence microscopy (63-fold magnification, Axiovert 200M, Zeiss).
Data set [5] deals with T1, GST-BRII-tail (methionine 501 to leucine 1038) (UniProt Q13873).
T1 sequence: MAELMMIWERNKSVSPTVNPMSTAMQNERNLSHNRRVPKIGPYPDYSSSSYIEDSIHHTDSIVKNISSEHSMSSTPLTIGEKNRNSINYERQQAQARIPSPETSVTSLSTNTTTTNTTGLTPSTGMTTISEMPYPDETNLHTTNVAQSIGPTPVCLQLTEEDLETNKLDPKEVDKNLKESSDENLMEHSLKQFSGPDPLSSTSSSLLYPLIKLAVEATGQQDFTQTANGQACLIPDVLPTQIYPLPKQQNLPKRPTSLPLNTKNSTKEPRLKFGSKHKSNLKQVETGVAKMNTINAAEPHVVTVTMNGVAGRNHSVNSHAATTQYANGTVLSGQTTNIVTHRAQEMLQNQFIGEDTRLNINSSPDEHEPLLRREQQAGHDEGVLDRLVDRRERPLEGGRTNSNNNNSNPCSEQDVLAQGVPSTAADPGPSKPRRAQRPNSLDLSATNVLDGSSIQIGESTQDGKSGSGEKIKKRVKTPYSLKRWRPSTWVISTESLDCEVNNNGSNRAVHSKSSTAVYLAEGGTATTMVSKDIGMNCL

Data set [6] has as its system Smad1/5/8. The data set can be described thus: Smad phosphorylation assay in C2C12 cells. It is filed as cell-based, mouse. The following applies: without ligand, sh-cGKI versus sh-control. From the text: (§1) Whole cellular extracts were subjected to immunoblot using α-pSmad1/5/8 antibody. α-cGKIβ and α-β-actin immunoblotting was used as expression and loading control. To monitor the activity of cGKIβ the membrane was re-probed with α-pVASP antibody. Results were quantified using ImageJ and Smad1 C-terminal phosphorylation was normalized relative to β-actin. […] (C) Efficiency of cGKI knock down using a specific short hairpin-RNA (sh-cGKI) compared to a control (sh-control) was validated in C2C12 cells via immunoblot using α-cGKI antibody. Applied protein amount was controlled by α-β-tubulin antibody. (D) C2C12 cells were transfected with sh-cGKI and sh-control and subjected as in (A) to Smad phosphorylation assay. Smad1/5/8 phosphorylation and protein loading was monitored with α-pSmad1/5/8 and α-β-actin antibodies. Results were quantified using […]) and Smad1/5 C-terminal phosphorylation was normalized relative to β-actin.
(§2) Cell lysis and immunoblotting was performed as described in (Hartung et al., 2006).

Data set [7] has as its system Smad1. The data set can be described thus: Smad phosphorylation assay in transfected 293T cells. It is filed as cell-based. To be noted: 293T cells co-expressing Smad1, non-stimulated and BMP-2/8-Br-cGMP co-stimulated.
Excerpt: as §1, §2

Data set [8] deals with HA-BRII-LF Q657ins16. The data set can be described thus: BRE reporter assay with BRII PAH mutant in C2C12 cells. It counts as cell-based, mouse. To be noted: C2C12 cells overexpressing cGKI and PAH mutant versus mutant alone. The protocol:
(§3) Luciferase activity was measured and error bars result from the mean of duplicate measurements. […] Expression of cGKIα/β was controlled by immunoblot using α-cGKI antibody. (C) As in (A and B) except that reporters were co-transfected with sh-cGKI, sh-cGKI mix and sh-control into C2C12 cells. BRE driven luciferase activity was measured and error bars represent deviation of the mean of duplicate measurements. […] Luciferase activities are represented as mean of each value and standard deviations result from duplicate measurements. […] Following cell extraction RNA was reverse transcribed into cDNA. The mRNA amount of Id1 was analyzed using Id1 specific primers including the control of applied cDNA by PCR using β-actin specific primers. The result is derived from a representative experiment. (F) As in (A and B), except that reporters were co-transfected with cGKIα and MYC-TFII-I into C2C12 cells. BRE driven luciferase activity was measured, standard deviations result from duplicate measurements. […] Lysates were pooled and immunoblotted for expression of cGKIα and TFII-I. (G) As in (E) except that mRNA amount of cGKI was analyzed using cGKI specific primers. The result is derived from an exemplary experiment. Results were quantified using ImageJ. cGKI mRNA expression was normalized relative to β-actin. […] The PDGF- or serum-induced proliferation was measured. […]

Data set [9] concerns human aortic smooth muscle cells. Put plainly: PDGF- or serum-induced proliferation of human aortic smooth muscle cells expressing BMPRII mutant. The following applies: cells transfected with MYC-BMPRII-Q567ins16 with cGKI coexpression, 24 h. It counts as cell-based. The method, then:
as §3

Consider `Nc1nc2c(nc(Br)n2[C@@H]2O[C@@H]3COP(=O)(O)O[C@H]3[C@H]2O)c(=O)[nH]1` [8-Br-cGMP], for which, in data set [1], the “effect on binding of Smad1 and cGKI to the Id1 promoter” value was “did not affect”. Further, the “BRE reporter gene activity upon stimulation” value in data set [2] (C2C12 cells, endogenous cGKI, 1 nmol/l BMP-2 and/or 1 μmol/l or 100 μmol/l 8-Br-cGMP, 24 hrs) was “did not affect”. Besides, in data set [3], the “cGKI-mediated VASP phosphorylation” value is recorded as “weak cGKI-mediated VASP phosphorylation”. For the same molecule, in data set [4], the “nuclear translocation of endogenous cGKI” value is listed as “redistribution of cGKI to the nucleus”.

recombinant cGKIα (Promega): the “in vitro phosphorylation (γ-32P-ATP, autoradiography), cGKIα activated with 8-Br-cGMP” value in data set [5] is recorded as “BRII-tail was phoshorylated by activated cGKlα”.

Regarding “sh-cGKI: shRNA construct specific for mouse cGKI, SEQ ID NO 3 (CACCGGGACGATGTTTCTAACAAACGAATTTGTTAGAAACATCGTCC; listed as Homo sapiens)”, the “BRE reporter gene response upon ligand stimulation compared to control cells” value in data set [2] (C2C12 cells transfected with sh-cGKI versus sh-control, BMP-2 stimulated) is recorded as “less than 50%”. For the same molecule, in data set [6], the “endogenous Smad1/5/8 phosphorylation” value is reported as “reduced”.

B1: cGKIβ: β isoform of cGMP-dependent protein kinase I, SEQ ID NO 2 (protein, listed as Homo sapiens)
chain: MGTLRDLQYALQEKIEELRQRDALIDELELELDQKDELIQKLQNELDKYRSVIRPATQQAQKQSASTLQGEPRTKRQAISAEPTAFDIQDLSHVTLPFYPKSPQSKDLIKEAILDNDFMKNLELSQIQEIVDCMYPVEYGKDSCIIKEGDVGSLVYVMEDGKVEVTKEGVKLCTMGPGKVFGELAILYNCTRTATVKTLVNVKLWAIDRQCFQTIMMRTGLIKHTEYMEFLKSVPTFQSLPEEILSKLADVLEETHYENGEYIIRQGARGDTFFIISKGTVNVTREDSPSEDPVFLRTLGKGDWFGEKALQGEDVRTANVIAAEAVTCLVIDRDSFKHLIGGLDDVSNKAYEDAEAKAKYEAEAAFFANLKLSDFNIIDTLGVGGFGRVELVQLKSEESKTFAMKILKKRHIVDTRQQEHIRSEKQIMQGAHSDFIVRLYRTFKDSKYLYMLMEACLGGELWTILRDRGSFEDSTTRFYTACVVEAFAYLHSKGIIYRDLKPENLILDHRGYAKLVDFGFAKKIGFGKKTWTFCGTPEYVAPEIILNKGHDISADYWSLGILMYELLTGSPPFSGPDPMKTYNIILRGIDMIEFPKKIAKNAANLIKKLCRDNPSERLGNLKNGVKDIQKHKWFEGFNWEGLRKGTLTPPIIPSVASPTDTSNFDSFPEDNDEPPPDDNSGWDIDF
In the case of B1, in data set [7], the “C-terminal Smad1 phosphorylation” value was “resulted in phosphorylation of Smad1”.

B2: cGKI: cGMP-dependent protein kinase I (α or β isoform, SEQ ID NO 1 or 2), overexpressed in cells (protein, UniProt Q13976 2-671, looked up)
cGMP-dependent protein kinase …: SELEEDFAKILMLKEERIKELEKRLSEKEEEIQELKRKLHKCQSVLPVPSTHIGPRTTRAQGISAEPQTYRSFHDLRQAFRKFTKSERSKDLIKEAILDNDFMKNLELSQIQEIVDCMYPVEYGKDSCIIKEGDVGSLVYVMEDGKVEVTKEGVKLCTMGPGKVFGELAILYNCTRTATVKTLVNVKLWAIDRQCFQTIMMRTGLIKHTEYMEFLKSVPTFQSLPEEILSKLADVLEETHYENGEYIIRQGARGDTFFIISKGTVNVTREDSPSEDPVFLRTLGKGDWFGEKALQGEDVRTANVIAAEAVTCLVIDRDSFKHLIGGLDDVSNKAYEDAEAKAKYEAEAAFFANLKLSDFNIIDTLGVGGFGRVELVQLKSEESKTFAMKILKKRHIVDTRQQEHIRSEKQIMQGAHSDFIVRLYRTFKDSKYLYMLMEACLGGELWTILRDRGSFEDSTTRFYTACVVEAFAYLHSKGIIYRDLKPENLILDHRGYAKLVDFGFAKKIGFGKKTWTFCGTPEYVAPEIILNKGHDISADYWSLGILMYELLTGSPPFSGPDPMKTYNIILRGIDMIEFPKKIAKNAANLIKKLCRDNPSERLGNLKNGVKDIQKHKWFEGFNWEGLRKGTLTPPIIPSVASPTDTSNFDSFPEDNDEPPPDDNSGWDIDF
For B2, the “BRE reporter activity upon overexpression” value in data set [2] (transfected C2C12 cells, in the absence of BMP-2) was “increased”. In addition, in [8], the “BRE activity in cells expressing the PAH mutant BRII” value is recorded as “rescues defective BMP signaling”. Also, the “PDGF- or serum-induced proliferation” value in data set [9] is recorded as “downregulated”.
